≈ marks a conversion by molar mass, not a printed value. Square brackets hold non-standard residues; d marks the D form. Ends that are not written are not given here. Peptide text beside a SMILES is read from it. * marks the point of attachment. X1 = C[N+](C)(C)[C@@H](Cc1ccccc1)C(=O)*; X2 = CC(C)C[C@@H](C(=O)*)[N+](C)(C)C; NMeF = CN[C@@H](Cc1ccccc1)C(=O)O; NMeI = CC[C@H](C)[C@H](NC)C(=O)O
Tests used:
[1] = tested on: Staphylococcus aureus (ATCC 29213); test: microbe, parasite or virus in culture; details: for MIC: Staphylococcus aureus, ATCC29213, read-out: MIC Value; for MIC Value: Table 4, minimum concentration needed to inhibit about 100 percent bacterial growth; for S. aureus MIC: no change in OD620 between time 0 and 21 hours; for S. aureus IC50: Example 8, individual peptides
Method: Concentrations of those 5X permethylated peptide mixtures that inhibited cellular growth by 50 percent (IC50) values were determined.
This culture was reinoculated and incubated at 37° C. to reach the exponential phase of bacterial growth; i.e., a final bacterial suspension containing about 10^5 to 5×10^5 colony-forming units (CFU)/ml. The concentration of cells was established by plating 100 μl of different dilutions of the culture solution (e.g., 10^-2, 10^-3 and 10^-4) onto solid agar plates. Following an overnight (about 18 hours) incubation at 37° C., the CFU thus formed were counted on each agar plate.
96-Well tissue culture plates were utilized, with eight wells per plate containing only medium as control blanks, whereas eight other wells contained medium plus cells as a positive growth control. These controls were used to detect possible medium contamination and to provide a measure of uninhibited growth of the microorganisms.
For determination of IC50 values (concentrations necessary to inhibit 50 percent growth of bacteria), peralkylated oligopeptide sets were added to the bacterial suspension at concentrations noted before. The plates were incubated overnight (about 18 hours) at 37° C., and the optical density (OD) determined at 620 nm after different times of incubation. IC50 values were then determined from the OD data.
Assays using S. aureus were carried out as described before. […] To initiate the exponential phase of bacterial growth prior to the assay, a sample of bacteria grown overnight (about 18 hours) at 37° C. in cation-adjusted Mueller Hinton broth (CAMM, for E. coli and S. aureus--Becton Dickinson Microbiology Systems, Cockeysville, Md.), or Brain Heart Infusion broth (BHI, for S. sanguis), was reinoculated in a 2X broth and incubated at 37° C. MRSA was grown at 35° C. in cation-adjusted MH broth in a similar manner. Prior to the assay, two colonies of newly grown C. albicans culture were inoculated in 5ml of phosphate buffer saline (PBS-35mM phosphate buffer, 0.15M NaCl-pH 7.0), and diluted in yeast medium broth. The bacteria and yeast suspensions were adjusted turbidimetrically so that a final concentration of 10^5 to 5×10^5 colony-forming units (CFU)/ml was used in all assays.
The plates were then incubated overnight at 37° C. […] The concentration necessary to inhibit 50 percent bacterial growth (IC50) was then calculated using the software program […] (ISI, San Diego, Calif.). […] In a similar manner, the plates containing C. albicans suspension were incubated for 48 hours at 30° C.

[2] = tested on: Streptococcus sangus ATCC 10566; test: Assays against S. sanguis (growth inhibition); type: cell-based, Streptococcus sanguis; details: for S. sanguis IC50 / S. sanguis MIC: Table 6
Method: The permethylated amino acid and peptides were screened against S. aureus and Streptoccus sanguis, as described below, and IC50 and MIC (minimum inhibitory concentration; minimum concentration needed to inhibit about 100 percent bacterial growth) values were determined. […]
(§1) Assays using S. aureus were carried out as described before. Methicillin-resistant Staphylococcus aureus (MRSA) ATCC 33591, Streptococcus sangus ATCC 10566, Escherichia coli ATCC 25922 and Candida albicans ATCC 10231 were used in the bioassays (ATCC, Rockville, Md.). To initiate the exponential phase of bacterial growth prior to the assay, a sample of bacteria grown overnight (about 18 hours) at 37° C. in cation-adjusted Mueller Hinton broth (CAMM, for E. coli and S. aureus--Becton Dickinson Microbiology Systems, Cockeysville, Md.), or Brain Heart Infusion broth (BHI, for S. sanguis), was reinoculated in a 2X broth and incubated at 37° C. MRSA was grown at 35° C. in cation-adjusted MH broth in a similar manner. Prior to the assay, two colonies of newly grown C. albicans culture were inoculated in 5ml of phosphate buffer saline (PBS-35mM phosphate buffer, 0.15M NaCl-pH 7.0), and diluted in yeast medium broth. The bacteria and yeast suspensions were adjusted turbidimetrically so that a final concentration of 10^5 to 5×10^5 colony-forming units (CFU)/ml was used in all assays.
(§2) The assays were carried out in 96-well tissue culture plates (Costar, Pleasanton, Calif.) as described in Blondelie et al., Biochemistry, 31:12688-12694 (1992), incorporated herein by reference. In brief, the bacterial suspension was added to an equal volume of the mixture of permeythylated compounds diluted in H2 O at concentrations derived from serial two-fold dilutions varying from 2500 μg/ml to 1 μg/ml. The plates were then incubated overnight at 37° C. The relative percent growth found for each compound (or mixture of compounds) was then determined by the optical density at 620 nm (OD620) using a Titertek Multiskan Plus apparatus (Flow Laboratories, McLean, Va.). The concentration necessary to inhibit 50 percent bacterial growth (IC50) was then calculated using the software program […] (ISI, San Diego, Calif.). […] In a similar manner, the plates containing C. albicans suspension were incubated for 48 hours at 30° C.

[3] = tested on: human red blood cells (RBC's); test: Hemolytic activity on human red blood cells; type: cell-based; details: 0.25 percent RBC suspension, one hour at 37° C.
Method: Hemolytic activities of the peptides were determined using human red blood cells (RBC's). The assays were carried out in 96-well tissue culture plates against a 0.25 percent RBC suspension as described in Blondelie et al., Biochim. Biophys. Acta, 1202:331-336 (1993), incorporated herein by reference. Briefly, individual permethylated peptides or peptide mixtures were added to the RBC solution at concentrations derived from serial two-fold dilutions varying from […]. Following a one hour incubation at 37° C., the plates were centrifuged at 2800 rpm for 5 minutes. The supernatant was separated from the pellet and its OD measured at 414 nm. Triton (1 percent) and PBS were used as 100 percent and 0 percent hemolysis controls, respectively.

[4] = Merck Index, 10th ed.; cited from earlier work
[5] = tested on: Methicillin-resistant Staphylococcus aureus (MRSA) ATCC 33591; test: Antimicrobial activity against MRSA (growth inhibition); type: cell-based; details: for MRSA MIC: no change in OD620 between time 0 and 21 hours
Method: as §1, §2

Compound: CC[C@H]1OC(=O)[C@H](C)[C@@H](O[C@H]2C[C@@](C)(OC)[C@@H](O)[C@H](C)O2)[C@H](C)[C@@H](O[C@@H]2O[C@H](C)C[C@H](N(C)C)[C@H]2O)[C@](C)(O)C[C@@H](C)C(=O)[C@H](C)[C@@H](O)[C@]1(C)O [Erythromycin, reference compound]
- MIC [1]: 0.5 µM (≈ 0.367 µg/mL)

Compound: Cc1onc(-c2ccccc2)c1C(=O)N[C@@H]1C(=O)N2[C@@H]1SC(C)(C)[C@@H]2C(=O)O [Oxacillin, reference compound]
- MIC [1]: 0.125 µM (≈ 0.0502 µg/mL)

Compound: CNC(=O)[C@H](Cc1ccccc1)[N+](C)(C)C [PerA-F, permethylated Phe N-methylamide]
- MIC Value [1]: > 500 µM
- MIC Value ([2]; Table 5): > 500 µM
- IC50 ([2]; Table 5, average results): > 500 µM

Compound: CNC(=O)[C@H](Cc1ccccc1)N(C)C(=O)[C@H](Cc1ccccc1)N(C)C(=O)[C@H](Cc1ccccc1)N(C)C(=O)[C@H](Cc1ccccc1)N(C)C(=O)[C@H](Cc1ccccc1)N(C)C(=O)[C@H](Cc1ccccc1)[N+](C)(C)C [PerA-FFFFFF, PerM-PhePhePhePhePhePhe] (X1-[NMeF][NMeF][NMeF][NMeF][NMeF]-NHMe)
- S. aureus MIC ([1]; listed as permethylated FFFFFF-NH2): lower than 15 μg/ml
- % hemolysis at 350 μg/ml [3]: 16%

Compound: CC[C@H](C)[C@@H](C(=O)N(C)[C@@H](Cc1ccccc1)C(=O)N(C)[C@@H](Cc1ccccc1)C(=O)N(C)[C@@H](Cc1ccccc1)C(=O)NC)N(C)C(=O)[C@H](Cc1ccccc1)N(C)C(=O)[C@H](Cc1ccccc1)[N+](C)(C)C [PerM-FFIFFF, PerM-PhePheIlePhePhePhe] (X1-[NMeF][NMeI][NMeF][NMeF][NMeF]-NHMe)
- S. aureus MIC ([1]; listed as permethylated FFIFFF-NH2): lower than 15 μg/ml
- % hemolysis at 350 μg/ml [3]: 0%

Compound: CNC(=O)[C@H](Cc1ccccc1)N(C)C(=O)[C@H](Cc1ccccc1)N(C)C(=O)[C@H](Cc1ccccc1)N(C)C(=O)[C@H](Cc1ccccc1)N(C)C(=O)[C@H](Cc1ccccc1)N(C)C(=O)[C@H](CC(C)C)[N+](C)(C)C [PerM-LFFFFF, PerM-LeuPhePhePhePhePhe] (X2-[NMeF][NMeF][NMeF][NMeF][NMeF]-NHMe)
- % hemolysis at 350 μg/ml [3]: 10%

Compound: CC[C@H](C)[C@@H](C(=O)N(C)[C@@H](Cc1ccccc1)C(=O)N(C)[C@@H](Cc1ccccc1)C(=O)N(C)[C@@H](Cc1ccccc1)C(=O)NC)N(C)C(=O)[C@H](Cc1ccccc1)N(C)C(=O)[C@H](CC(C)C)[N+](C)(C)C [PerM-LFIFFF, PerM-LeuPheIlePhePhePhe] (X2-[NMeF][NMeI][NMeF][NMeF][NMeF]-NHMe)
- S. aureus MIC ([1]; listed as permethylated LFIFFF-NH2): lower than 15 μg/ml
- % hemolysis at 350 μg/ml [3]: 12%

Compound: CC(=O)[C@H]1CC[C@H]2[C@@H]3CCC4=CC(=O)CC[C@]4(C)[C@H]3CC[C@]12C [progesterone]
- solubility in water [4]: insoluble in water

Compound: C[N+](C)(C)[C@@H](Cc1ccccc1)C(=O)N[C@@H](Cc1ccccc1)C(=O)N[C@@H](Cc1ccccc1)C(=O)N[C@@H](Cc1ccccc1)C(=O)N[C@@H](Cc1ccccc1)C(=O)N[C@@H](Cc1ccccc1)C(N)=O [reference compound] (X1-FFFFF-NH2)
- S. aureus IC50 [1]: > 250 µg/mL

Compound: C[C@]12CC[C@H]3[C@@H](CCC4=CC(=O)CC[C@@]43C)[C@@H]1CC[C@@H]2O [testosterone]
- solubility in water [4]: insoluble in water

Compound: N-acetyl hexaPhe amide [N-Ac-hexaPhe, reference compound]
- MIC Value [1]: > 500 µM

Compound: PerM-LeuPheIlePheHisPhe (LFIFHF; also: permethylated) [PerM-LFIFHF]
- S. aureus IC50 [1]: 12 µg/mL
- S. aureus MIC [1]: 21 to 31 µg/mL
- S. sanguis IC50 [2]: 13 µg/mL
- S. sanguis MIC [2]: 20 to 40 µg/mL
- MRSA IC50 [5]: 14 µg/mL
- MRSA MIC [5]: 15 to 21 µg/mL
- % hemolysis at 350 μg/ml [3]: 7%

Compound: PerM-LeuPheIlePhePheHis (LFIFFH; also: permethylated) [PerM-LFIFFH]
- S. aureus IC50 [1]: 12 µg/mL
- S. aureus MIC [1]: 21 to 31 µg/mL
- S. sanguis IC50 [2]: 19 µg/mL
- S. sanguis MIC [2]: 30 to 40 µg/mL
- MRSA IC50 [5]: 20 µg/mL
- MRSA MIC [5]: 25 to 42 µg/mL
- % hemolysis at 350 μg/ml [3]: 1%

Compound: PerM-LeuPhePhePheHisPhe (LFFFHF; also: permethylated) [PerM-LFFFHF]
- S. aureus IC50 [1]: 12 µg/mL
- S. aureus MIC [1]: 21 to 31 µg/mL
- S. sanguis IC50 [2]: 19 µg/mL
- S. sanguis MIC [2]: 30 to 40 µg/mL
- MRSA IC50 [5]: 13 µg/mL
- MRSA MIC [5]: 15 to 21 µg/mL
- % hemolysis at 350 μg/ml [3]: 4%

Compound: PerM-LeuPhePhePhePheHis (LFFFFH; also: permethylated) [PerM-LFFFFH]
- S. aureus IC50 [1]: 13 µg/mL
- S. aureus MIC [1]: 21 to 42 µg/mL
- S. sanguis IC50 [2]: 22 µg/mL
- S. sanguis MIC [2]: 30 to 40 µg/mL
- MRSA IC50 [5]: 16 µg/mL
- MRSA MIC [5]: 21 to 42 µg/mL
- % hemolysis at 350 μg/ml [3]: 3%

Compound: PerM-PhePheIlePhePheHis (FFIFFH; also: permethylated) [PerM-FFIFFH]
- S. aureus IC50 [1]: 14 µg/mL
- S. aureus MIC [1]: 31 to 42 µg/mL
- S. sanguis IC50 [2]: 18 µg/mL
- S. sanguis MIC [2]: 30 to 40 µg/mL
- MRSA IC50 [5]: 19 µg/mL
- MRSA MIC [5]: 21 to 42 µg/mL
- % hemolysis at 350 μg/ml [3]: 0%

Compound: PerM-PhePhePhePheHisPhe (FFFFHF; also: permethylated) [PerM-FFFFHF]
- S. aureus IC50 [1]: 11 µg/mL
- S. aureus MIC [1]: 15 to 21 µg/mL
- S. sanguis IC50 [2]: 19 µg/mL
- S. sanguis MIC [2]: 30 to 40 µg/mL
- MRSA IC50 [5]: 18 µg/mL
- MRSA MIC [5]: 21 to 42 µg/mL
- % hemolysis at 350 μg/ml [3]: 3%

From US5480971A, “Peralkylated oligopeptide mixtures” (Houghten Pharmaceuticals, Inc., priority 1994, dated 1996)
